Read-outs that look alike come from different tables or passages of the source. Oligonucleotides are written 5' to 3', each unit as a sugar letter and its base; * is a phosphorothioate linkage, no mark a phosphodiester; rarer units and linkages stand in square brackets, end groups in braces. Plain capitals give the bases only. l = locked nucleic acid (LNA); [5mC] = 5-methylcytosine; d = 2'-deoxy (DNA)
Experiments:
15PC3 cells [1] = experiment: Caspase 3/7 activity (apoptosis) in transfected 15PC3 cells; assay type: cell-based, human; settings: for Apoptosis At 5 nM, 24 hours: 24 hours (Table 7, FIG. 3); for Max Apoptosis: 25 nM, 48 hours (Table 7)
Experimental: (§1) Culturing of cells: 15PC3 was cultured in DMEM (Sigma) containing 10% fetal bovine serum, Glutamax I and gentamicin at 37° C., 95% humidity and 5% CO2. The cervical carcinoma cell line HeLa were cultured in MEM (Sigma) containing 10% fetal bovine serum, Glutamax I and gentamicin at 37° C., 95% humidity and 5% CO2. When reaching 60-70% confluency, the cells were transfected using Lipofectamine 2000 (5 μg/ml).
15PC3 cells were seeded to a density of 10000 cells per well in white 96-well plates (Nunc 136101) in DMEM the day prior to transfection. The next day cells were washed once in prewarmed OptiMEM followed by addition of 72 μl OptiMEM containing 5 μg/ml Lipofectamine-2000 (In vitrogen). Cells were incubated for 7 min before adding 18 μl oligonucleotides diluted in OptiMEM. The final oligonucleotide concentration ranged from 0.2 nM to 100 nM. After 4 hours of treatment, cells were washed in OptiMEM and 100 μl DMEM containing serum was added. Following oligonucleotide treatment, cells were allowed to recover for the period indicated before they were removed from the CO2 incubator and equilibrated to room temperature for 15 min. 100 μl of the highly sensitive Caspase 3/7-Glo™ Reagent (Promega) was added directly to the cells, and the plates were incubated for 20 min. Luminescence (luciferase activity) was recorded in a Luminoskan Ascent instrument (Thermo Labsystems). The luciferase activity is measured as Relative Light Units per seconds (RLU/s). The data was analysed using the Ascent software 2.4.2. Graphs of fold induction relative to mock were generated using MS Excel.
Staurosporine, Camptothecine or Taxol induced cells served as positive controls (see FIGS. 3, 6A and Table 4 plus Example 21).

15PC3 cells [2] = experiment: MTS assay of proliferating viable cells; assay type: cell-based, human
Experimental: as §1
Cells were seeded to a density of 10000 cells per well in clear 96 well plate (Scientific Orange no. 1472030100) in DMEM the day prior to transfection. The next day cells were washed once in prewarmed OptiMEM followed by addition of 72 μl OptiMEM containing 5 μg/ml Lipofectamine 2000 (Invitrogen). Cells were incubated for 7 min before adding 18 μl oligonucleotides diluted in OptiMEM. […] After 4 hours of treatment, cells were washed in OptiMEM and 100 μl serum containing DMEM was added. Following oligonucleotide treatment cells were allowed to recover for the period indicated, viable cells were measured by adding 20 μl of the tetrazolium compound [3-(4,5-[…])-5-(3-carboxymethoxyphenyl)-2-(4-sulfophenyl)-2H-tetrazolium, inner salt; MTS] and an electron coupling reagent (phenazine ethosulfate, PES; CellTiter 96® AQueous One Solution Cell Proliferation Assay, Promega). Viable cells were measured at 490 nm and 650 nm in a Powerwave (Biotek Instruments).
The inhibition of growth rate ΔOD (490-650 nm)/h was plotted against the oligonucleotide concentration relative to mock, which was set to 100%. The maximum inhibition of proliferation observed in the MTS assay was 70% (minimum 30%). (Table 5 and FIG. 5)

human Survivin RNA = experiment: Survivin mRNA knockdown in transfected 15PC3 cells by real-time PCR; assay type: cell-based
Experimental: Cell culturing and transfections: 15PC3 cells were seeded in 12-well plates and grown for two days at 37° C. (5% CO2) in DMEM supplemented with 10% FBS, Glutamax I and Gentamicin. When the cells were 60-70% confluent, they were transfected in duplicates with different concentrations of oligonucleotides (0.2-25 nM) using Lipofectamine 2000 (10 μg/ml). Transfections were carried out essentially as described by Dean et al. (1994, JBC 269:16416-16424). In short, cells were incubated for 10 min. with Lipofectamine in OptiMEM followed by addition of oligonucleotide to a total volume of 0.5 ml transfection mix per well. […] Cells were then harvested for protein and RNA analysis.
Total RNA was isolated using RNeasy mini kit (Qiagen). Cells were washed with PBS, and Cell Lysis Buffer (RTL, Qiagen) supplemented with 1% mercaptoethanol was added directly to the wells. After a few minutes, the samples were processed according to manufacturer's instructions.
First strand synthesis was performed using OmniScript Reverse Transcriptase kit according to the manufacturer's instructions (Qiagen). For each sample, 0.5 μg total RNA was adjusted to 12 μl and mixed with 0.2 μl poly (dT)12-18 (0.5 μg/μl) (Life Technologies), 2 μl dNTP mix (5 mM each), 2 μl 10× RT buffer, 0.5 μl RNAguard™ RNase Inhibitor (33 units/ml, Amersham) and 1 μl OmniScript Reverse Transcriptase followed by incubation at 37° C. for 60 min. and heat inactivation at 93° C. for 5 min.
To determine the relative Survivin mRNA level in oligonucleotide treated and untreated cells, the generated cDNA was used in quantitative PCR analysis using an iCycler from BioRad. The cDNA was diluted 5-fold and 8 μl was mixed with 52 μl Taqman probe master mix containing 30 μl Platinum Quantitative PCR SuperMix UDG 2×PCR master mix (Invitrogen), 3 μl 20× Taqman probe and primer mix (forward primer: 5′[…] (SEQ ID NO:29), final 0.9 μM. Reverse primer: 5′[…] (SEQ ID NO:30), final 0.6 μM and taqman probe: FAM-[…]-TAMRA (SEQ ID NO:31), final 0.1 μM) and 19 μl H2O. The 60 μl were dispersed in two wells (96 well plates) with […] in each well. For human Bcl-2 the PCR primers were: […]
The primers and probe were obtained from […] (France). To normalize any variance in sample preparation, the endogenous GAPDH mRNA was quantified using a pre-developed Taqman assay reagent from Applied Biosystems (4310884E) according to manufacturer's Instructions. Two-fold dilutions of cDNA, synthesised from untreated 15PC3 cells (expressing both Survivin and GAPDH), was used to prepare standard curves for the assays. The PCR program was as follows: 50° C. for 2 min., 95° C. for 10 min. followed by 40 cycles of 95° C. 15 sec., 60° C. 1 min. Relative quantities of Survivin mRNA were determined from the calculated threshold cycle using the iCycler IQ Real Time Detection System software.
In accordance with the present invention, a series of oligonucleotides were designed to target different regions of the human Survivin RNA, using published sequences (GenBank accession number NM_001168).
LNA oligonucleotides were evaluated for their potential to knockdown Survivin mRNA in 15PC3 cells. The data are presented as percentage down-regulation relative to mock transfected cells. Transcript steady state was monitored by Real-time PCR and normalised to the GAPDH transcript steady state, see Table 3. Note that all LNA C are 5-methyl-Cytosine.

complementary RNA = experiment: Measurement of melting temperature (Tm) of the duplex; assay type: binding; settings: 3 μM, 10 mM sodium phosphate/100 mM NaCl/0.1 nM EDTA, pH 7.0
Experimental: Measurement of melting temperature (Tm) of the compounds: A 3 μM solution of SEQ ID NO. 2 in 10 mM sodium phosphate/100 mM NaCl/[…], pH 7.0 was mixed with its complement DNA/RNA 3 μM in 10 mM sodium phosphate/100 mM NaCl/[…], pH 7.0 at 90° C. for a minute and allowed to cool to room temperature. The Tm of the duplex was then determined by increasing the temperature 1° C./min. from 25 to 95° C. The Tm of SEQ ID NO.

HeLa cells = experiment: Annexin V-FITC/PI flow cytometry analysis; assay type: cell-based, human; settings: 5 nM or 25 nM
Experimental: as §1
0.4×10^6 HeLa cells were seeded in T25 flasks one day prior to transfection. On the day of transfection, the cells were washed once in 37° C. OptiMEM followed by addition of 2.8 ml OptiMEM containing 5 μg/ml Lipofectamine-2000 (In vitrogen). Cells were incubated for 7 min before adding 700 μl oligonucleotides diluted in OptiMEM to a final concentration of 5 nM or 25 nM, Mock transfected cells served as control. After 4 hours of treatment cells were washed in OptiMEM and 3 ml culture medium was added. Following oligonucleotide treatment cells were allowed to recover for 48 hours before they were harvested by scraping and washed twice in PBS. 0.2×10^6 cells were incubated with 5 μl Annexin V-FITC and 10 μl propidium iodide (PI-10 mg/ml) and incubated for 15 min at room temperature in the dark. […] Moreover, TRAIL (Apo2L) induced HeLA cells (0.5 μg/ml) were used as positive control. (See FIG. 4)

15PC3 cells [3] = experiment: Cell cycle analysis by propidium iodide staining and FACS; assay type: cell-based, human; settings: 10 nM, 24 hours, 15PC3 cells
Experimental: Cell culturing: Human prostate cancer 15PC3 cells (kindly provided by Dr. F Baas, Neurozintuigen Laboratory, AMC, The Netherlands) were seeded to a density of 8×10E5 cells in T75-flasks and grown for two days at 37° C. and 5% CO2 in DMEM supplemented with 10% FBS, Glutamax and Gentamicin. Two days following seeding cells were transfected with 2-10 nM SEQ ID NO. 2 using Lipofectamine at a final conc. of 7.5 μg/ml. Transfections were carried out as described by Dean et al. (1994, JBC 269 p. 16416 16424). In short cells were incubated with Lipofectamine diluted in OptiMEM for 7-10 min followed by the addition of the oligonucleotide to total volume of 8.7 ml per T75 flask. 4 hours following transfection cells were washed in OptiMEM and grown at 37° C. for 12-96 hours in complete growth medium with or without the addition of 2-100 nM Taxol (Sigma Aldrich). Cells were harvested for either mRNA extraction, Caspase 3/7 assay or fixed, stained with PI and analysed by FACS analysis.
Cell culturing and transfections: As in example 13.
Fixation and PI staining: Cells were washed in PBS, harvested and resuspended in 100 μl in ice cold PBS. 900 μl ice cold 70% […] and fixed cells were kept at −20 until use. […]
SEQ ID NO. 2 transfected 15PC3 cells were exposed to different concentrations of Taxol and analysed by Propidium Iodide staining and subsequent FACS analysis (FIG. 7a-c). […]

[4] = 48 hours (Table 7, FIG. 5), read-out: Proliferation IC50 (48 hours)
[5] = Survivin mRNA down-regulation relative to mock, normalised to GAPDH, standard deviation in brackets, at least three experiments

Substance: 5′-Gs^MeCsAs^MeCsasgststsgsasasas^MeCsAsTsc-3′ (lG*l[5mC]*lA*l[5mC]*dA*dG*dT*dT*dG*dA*dA*dA*l[5mC]*lA*lT*dC) [SEQ ID NO. 22]
- Apoptosis At 5 nM, 24 hours (15PC3 cells [1]; 5 nM): No activity
- Max Apoptosis (15PC3 cells [1]): 2.5-fold
- IC50 (15PC3 cells [2]; [4]): 25 nM

Substance: ^MeCsTscscscsasgscsgstsgscsgs^MeCs^MeCsa (l[5mC]*lT*dC*dC*dC*dA*dG*dC*dG*dT*dG*dC*dG*l[5mC]*l[5mC]*dA) [SEQ ID NO. 26, reference compound]
- Survivin mRNA expression (human Survivin RNA; 10 nM, 24 hours, single agent or combined with control oligonucleotides): does not have any effect on Survivin

Substance: 5′-Gs^MeCsAsGstsgsgsastsgsasasGs^MeCs^MeCsA-3′ (lG*l[5mC]*lA*lG*dT*dG*dG*dA*dT*dG*dA*dA*lG*l[5mC]*l[5mC]*lA) [SEQ ID NO. 23, reference compound]
- IC50 (human Survivin RNA; [5]): 2.5 nM
- IC75 [nM] (human Survivin RNA; [5]): 6.2 (1.6) nM
- Apoptosis At 5 nM, 24 hours (15PC3 cells [1]; 5 nM): 2-fold
- Max Apoptosis (15PC3 cells [1]): 5.5-fold

Substance: TsGsTsGscstsaststscstsgstsgsAsAsTsT (lT*lG*lT*lG*dC*dT*dA*dT*dT*dC*dT*dG*dT*dG*lA*lA*lT*lT) [SEQ ID NO. 21]
- Apoptosis At 5 nM, 24 hours (15PC3 cells [1]; 5 nM): No activity
- Max Apoptosis (15PC3 cells [1]): 2.5-fold
- IC50 (15PC3 cells [2]; [4]): 25 nM
- Tm (° C.) complementary RNA (complementary RNA): 62.7 °C

Substance: ^MeCsGs^MeCsAsgsaststsasgsasasAs^MeCs^MeCst (l[5mC]*lG*l[5mC]*lA*dG*dA*dT*dT*dA*dG*dA*dA*lA*l[5mC]*l[5mC]*dT) [SEQ ID NO. 24, negative control oligonucleotide, design 4-8-3-1]
- Maximum Induction Fold-induction of apoptosis, Caspase 3/7 assay (15PC3 cells [1]; 100 nM, 48 hours, 15PC3 cells): 3.1 x (100 nM, 48 hours)
- Fold induction of apoptosis, Caspase 3/7 assay (15PC3 cells [1]; 24 hours, 5 nM, 15PC3 cells, relative to mock): 1.5 x
- Proliferation (relative number of viable cells) (15PC3 cells [2]; 0.2, 1, 5, 25 and 100 nM, 13-72 hours after transfection, 15PC3 cells): does not
- IC50 (15PC3 cells [2]; 48 hours, transfected 15PC3 cells (Table 5), read-out: Inhibition of proliferation, MTS assay IC50 (48 hours)): 86.9 nM
- Induction of early and late apoptosis (Annexin V-FITC/PI staining) (HeLa cells): do not induce apoptosis
- Effect on the cell cycle (15PC3 cells [3]): no effect on the cell cycle

Source: patent US8173428B2, “LNA oligonucleotides and the treatment of cancer” (Santaris Pharma A/S, priority 2004, dated 2012)
